From patent US4680283A, “Analogs of substance P and eledoisin” (Merck & Co., Inc., priority 1986, dated 1987)

Tests used:
[1] = molecular target: T1, 125I-BH-eledoisin binding sites in rat brain cortex membranes (Rattus norvegicus, UniProt P16177); assay: eledoisin binding assay (competition for 125I-BH-eledoisin binding sites); conditions: peptides dissolved in DMSO
T1 construct: from tissue; host or cells: rat brain cortex membranes
T1 sequence (P16177 1-452): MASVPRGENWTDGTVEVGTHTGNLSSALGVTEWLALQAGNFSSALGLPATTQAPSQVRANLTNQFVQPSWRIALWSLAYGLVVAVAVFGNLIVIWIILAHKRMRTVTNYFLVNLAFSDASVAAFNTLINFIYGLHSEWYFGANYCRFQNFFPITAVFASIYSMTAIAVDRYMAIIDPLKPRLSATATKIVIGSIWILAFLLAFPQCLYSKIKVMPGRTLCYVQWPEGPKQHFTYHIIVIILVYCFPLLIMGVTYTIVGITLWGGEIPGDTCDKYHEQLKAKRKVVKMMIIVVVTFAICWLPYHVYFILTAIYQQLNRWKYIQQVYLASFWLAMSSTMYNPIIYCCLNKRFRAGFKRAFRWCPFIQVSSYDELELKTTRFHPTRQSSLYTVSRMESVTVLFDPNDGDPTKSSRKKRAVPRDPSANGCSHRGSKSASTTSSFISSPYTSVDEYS
Protocol: (§1) Representative compounds of this invention were tested in the substance P (SP) and eledoisin binding assays. The peptides were dissolved in DMSO and tested for their abilities to compete for ^125 I-BH-SP and ^125 I-BH-eledoison binding sites in rat brain cortex membranes (Cascieri and Liang, J. Biol. Chem., 258, 5158 (1983); Life Sciences, 35, 179 (1984)).
(§2) The following table summarizes the IC50 data obtained in both assay systems as well as showing the IC50 ratio for each peptide in the SP and eledoisin binding assays.

[2] = molecular target: T2, 125I-BH-SP binding sites in rat brain cortex membranes (Rattus norvegicus, UniProt P14600); assay: substance P (SP) binding assay (competition for 125I-BH-SP binding sites); conditions: peptides dissolved in DMSO
T2 construct: from tissue; host or cells: rat brain cortex membranes
Protocol: as §1, §2

T2 sequence (P14600 whole entry): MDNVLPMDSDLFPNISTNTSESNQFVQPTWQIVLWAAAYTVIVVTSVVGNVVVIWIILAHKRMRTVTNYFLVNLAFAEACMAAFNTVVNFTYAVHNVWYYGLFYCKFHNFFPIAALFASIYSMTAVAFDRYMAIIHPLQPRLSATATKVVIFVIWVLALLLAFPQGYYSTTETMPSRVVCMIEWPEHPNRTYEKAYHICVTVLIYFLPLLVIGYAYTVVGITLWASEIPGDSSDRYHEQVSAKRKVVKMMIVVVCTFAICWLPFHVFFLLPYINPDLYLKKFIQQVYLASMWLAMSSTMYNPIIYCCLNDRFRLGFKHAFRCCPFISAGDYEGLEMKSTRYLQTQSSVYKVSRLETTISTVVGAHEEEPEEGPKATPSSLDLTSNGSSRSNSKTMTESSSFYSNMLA

IC50 [1] | IC50 [2] | SMILES
32 µM | 60 µM | CSCC[C@H](NC(=O)[C@H](CC(C)C)N1CC[C@H](NC(=O)[C@H](Cc2ccccc2)NC(=O)[C@H](Cc2ccccc2)NC(=O)[C@@H]2CCC(=O)N2)C1=O)C(N)=O [L-363,232]
0.014 µM | 13 µM | CSCC[C@H](NC(=O)[C@H](CC(C)C)N1CC[C@@H](NC(=O)[C@H](Cc2ccccc2)NC(=O)[C@H](Cc2ccccc2)NC(=O)[C@@H]2CCC(=O)N2)C1=O)C(N)=O [L-363,851, Pyroglutamyl-phenylalanyl-phenylalanyl-[(R)-3-amino-2-oxo-1-pyrrolidine-(S)-4-methyl-2-pentanoyl]-methionine amide]
